Experimental data reported in paper PMC3738524, “Bioenergetic and Antiapoptotic Properties of Mitochondria from Cultured Human Prostate Cancer Cell Lines PC-3, DU145 and LNCaP” (PLoS ONE, 2013).
Where two headings read alike, the source gives them in different places.

Target: T1, Complex I (NADH dehydrogenase) (Homo sapiens, UniProt P49821)
T1 construct: gene NDUFV1
Conditions: optimal decylubiquinone as acceptor, 30 °C, '+' printed for ±

T1 sequence (P19404 33-249): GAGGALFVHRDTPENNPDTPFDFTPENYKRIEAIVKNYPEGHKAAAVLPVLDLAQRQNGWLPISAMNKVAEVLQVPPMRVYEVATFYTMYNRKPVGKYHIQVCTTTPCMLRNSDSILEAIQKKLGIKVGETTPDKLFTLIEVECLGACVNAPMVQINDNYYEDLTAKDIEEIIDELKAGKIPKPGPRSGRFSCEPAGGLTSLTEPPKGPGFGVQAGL
T1 sequence (P28331 24-727, further chain): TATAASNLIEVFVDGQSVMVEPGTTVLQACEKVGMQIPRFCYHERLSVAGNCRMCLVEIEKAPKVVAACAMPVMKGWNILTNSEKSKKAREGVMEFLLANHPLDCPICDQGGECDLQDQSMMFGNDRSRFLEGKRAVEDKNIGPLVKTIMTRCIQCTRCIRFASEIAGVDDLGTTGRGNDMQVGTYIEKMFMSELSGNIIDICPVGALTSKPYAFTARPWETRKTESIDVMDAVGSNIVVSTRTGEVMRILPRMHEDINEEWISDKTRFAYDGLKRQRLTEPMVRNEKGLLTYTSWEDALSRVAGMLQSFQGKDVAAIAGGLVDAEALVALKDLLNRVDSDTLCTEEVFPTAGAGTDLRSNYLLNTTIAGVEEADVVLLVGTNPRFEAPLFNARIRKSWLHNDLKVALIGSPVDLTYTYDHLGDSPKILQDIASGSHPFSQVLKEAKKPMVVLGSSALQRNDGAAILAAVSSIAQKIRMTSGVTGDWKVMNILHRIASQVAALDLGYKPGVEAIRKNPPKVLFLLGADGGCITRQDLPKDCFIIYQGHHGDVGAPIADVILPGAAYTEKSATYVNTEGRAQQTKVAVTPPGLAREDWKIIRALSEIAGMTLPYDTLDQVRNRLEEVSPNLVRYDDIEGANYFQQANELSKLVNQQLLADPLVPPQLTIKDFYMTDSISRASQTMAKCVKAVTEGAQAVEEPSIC
T1 sequence (P49821 21-464): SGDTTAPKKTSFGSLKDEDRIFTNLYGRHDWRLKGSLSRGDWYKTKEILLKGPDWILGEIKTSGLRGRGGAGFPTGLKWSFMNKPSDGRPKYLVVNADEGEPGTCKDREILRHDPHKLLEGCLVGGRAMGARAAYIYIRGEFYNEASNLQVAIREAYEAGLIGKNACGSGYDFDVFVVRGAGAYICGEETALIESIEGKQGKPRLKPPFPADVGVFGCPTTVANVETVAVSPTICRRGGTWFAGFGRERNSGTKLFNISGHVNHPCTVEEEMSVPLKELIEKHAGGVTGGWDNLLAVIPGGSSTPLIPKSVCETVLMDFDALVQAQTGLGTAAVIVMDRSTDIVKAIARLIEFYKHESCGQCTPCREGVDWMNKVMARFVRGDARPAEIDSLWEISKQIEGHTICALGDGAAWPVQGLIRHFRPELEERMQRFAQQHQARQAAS

NC(=O)C1=CN([C@@H]2O[C@H](COP(=O)(O)OP(=O)(O)OC[C@H]3O[C@@H](n4cnc5c(N)ncnc54)[C@H](O)[C@@H]3O)[C@@H](O)[C@H]2O)C=CC1 [NADH]
KM^NADH (EBV-transformed normal lymphoblastoid HLB cells): 1.8+0.1 µM | KM^NADH (fibrosarcoma HT1080C cells): 5+2 µM | KM^NADH (normal prostate epithelial PrEC cells): 4+0.5 µM | KM^NADH (prostate cancer cells PC-3, DU145 and LNCaP (one common value printed)): 20+2.5 µM
